We go through 19 compounds from patent US10899754B2, “Modulators of indoleamine 2,3-dioxygenase” (GLAXOSMITHKLINE INTELLECTUAL PROPERTY DEVELOPMENT LIMITED, priority 2016, dated 2021).

Type in all cases: cell-based
In series [1] the target is T1, indoleamine 2, 3-dioxygenase (IDO1) (Homo sapiens, UniProt P14902). The series can be described thus: IDO1 HeLa RapidFire MS assay (kynurenine detection by mass spectrometry). The following applies: HeLa cells, pIC50, read-out: IDO1_HELA_PXC50 (converted). The arrangement: to induce the expression of indoleamine 2, 3-dioxygenase (IDO1). In short, it runs like this:
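Compound potency reported as pIC50 from kynurenine/internal-standard ratio (RapidFire MS) in supernatant of IFN-γ-induced (10 nM) HeLa cells, 5,000 per well, after 2 days' treatment with 11-point dilutions. Cytotoxicity in the same format by luminescent ATP detection, reported as pCC50.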

Series [2] concerns human peripheral blood mononuclear cells (PBMC). Put plainly: PBMC cytotoxicity assay (CellTiter-Glo). The note with it: 2 days, pCC50. In short, it runs like this: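 % cytotoxicity was taken from CellTiter-Glo luminescence, using wells without cells and stimulated DMSO wells as references, and fitted by four-parameter curve to give XC50. Cells were human PBMC at 50,000 per well, activated with 100 ng/ml IFN-γ plus 50 ng/ml LPS. Incubation with 11-point, 3-fold dilution series ran for 2 days at 37 °C.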
(ATP-based viability assays read luminescence as a measure of living cells.)

The target in series [3] is T1, indoleamine 2, 3-dioxygenase (IDO1). Put plainly: IDO1 PBMC RapidFire MS assay (kynurenine detection by mass spectrometry). Details: to induce the expression of indoleamine 2, 3-dioxygenase (IDO1); host or cells: human PBMC stimulated with IFN-gamma and LPS. The following applies: human PBMC stimulated with IFN-γ and LPS, 2 days, pIC50, read-out: PBMC PXC50 (converted). Summed up:
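Kynurenine output, read by RapidFire mass spectrometry as ratio to an internal standard, was measured after 2-day compound exposure (11-point, 3-fold dilutions) of human PBMCs induced with 100 ng/ml IFN-γ and 50 ng/ml LPS. Cell viability tracked alongside via ATP luminescence; XC50 from curve fitting.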

Series [4] deals with human epithelial HeLa cells. The series can be described thus: HeLa cytotoxicity assay (CellTiter-Glo). The note with it: pCC50. In short, it runs like this:
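Read-out is CellTiter-Glo luminescence after 2 days at 37 °C, on IFN-γ-stimulated (10 nM) HeLa cells seeded at 5,000/well with compounds in 11-point 3-fold dose series. pCC50 from four-parameter curve fit; wells without cells set 100% cytotoxicity, stimulated cells with DMSO set 0%.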

T1 sequence (P14902 whole entry): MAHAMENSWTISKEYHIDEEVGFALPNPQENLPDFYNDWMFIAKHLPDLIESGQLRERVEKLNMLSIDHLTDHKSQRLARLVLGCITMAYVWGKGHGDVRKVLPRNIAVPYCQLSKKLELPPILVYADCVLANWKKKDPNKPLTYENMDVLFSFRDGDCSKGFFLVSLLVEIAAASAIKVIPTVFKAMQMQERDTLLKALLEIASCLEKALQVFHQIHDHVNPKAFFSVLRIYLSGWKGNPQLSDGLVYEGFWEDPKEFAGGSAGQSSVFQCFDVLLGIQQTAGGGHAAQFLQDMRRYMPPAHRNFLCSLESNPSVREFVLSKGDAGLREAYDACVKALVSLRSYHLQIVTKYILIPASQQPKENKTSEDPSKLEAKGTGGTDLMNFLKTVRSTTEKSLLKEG

Take `CC(C)CN(CC(C)C)c1ccc(-c2ccccc2C(=O)O)cc1Nc1nc2ccccc2[nH]1` [example 297, 3′-[(1H-1,3-benzodiazol-2-yl)amino]-4′-[bis(2-methylpropyl)amino]-[1,1′-biphenyl]-2-carboxylic acid]: the values for the IC50 in series [1] and in series [3] were 50.1 nM and 20 nM, respectively. In addition, in series [2], the “PBMC TOX PXC50” value is listed as less than 5. The same compound showed an HELA_IDO1_TOX_PXC50 in series [4] of less than 5.
Consider `CC(C)CN(c1ccc(-c2ccccc2C(=O)O)cc1Nc1nc(C(F)(F)F)ns1)C1CCOCC1` [Example 103, 4′-(isobutyl(tetrahydro-2H-pyran-4-yl)amino)-3′-((3-(trifluoromethyl)-1,2,4-thiadiazol-5-yl)amino)-[1,1′-biphenyl]-2-carboxylic Acid], for which the values for the IC50 in series [1] and in series [3] were 3.16 nM and 1.58 nM, respectively. The “PBMC TOX PXC50” value in series [2] is given as less than 5. Further, the HELA_IDO1_TOX_PXC50 in series [4] is on record as less than 5.
Take `Cc1nnc(Nc2cc([C@H](C)CC(=O)O)ccc2N(CC(C)C)C2CCOCC2)s1` [example 215, (3R)-3-{3-[(5-methyl-1,3,4-thiadiazol-2-yl)amino]-4-[(2-methylpropyl)(oxan-4-yl)amino]phenyl}butanoic acid]: the IC50 was 20 nM in series [1] and 31.6 nM in series [3]. Besides, the “PBMC TOX PXC50” value in series [2] is recorded as less than 5. Also, the HELA_IDO1_TOX_PXC50 in series [4] was less than 5.
For the compound `Cc1nsc(Nc2cc(-c3ccccc3C(=O)O)ccc2N(CC(C)C)CC(C)C)n1` [example 286, 4′-[bis(2-methylpropyl)amino]-3′-[(3-methyl-1,2,4-thiadiazol-5-yl)amino]-[1,1′-biphenyl]-2-carboxylic acid], the IC50 in series [1] is 501 nM; in series [3] it was 200 nM. Also, in series [2], the “PBMC TOX PXC50” value was less than 5. The compound further returned an HELA_IDO1_TOX_PXC50 in series [4] of less than 5.
Take `CO[C@H]1CC[C@@H](N(CC(C)C)c2ccc(-c3ccccc3C(=O)O)cc2Nc2nc(C(F)(F)F)ns2)CC1` [example 276, 4′-[(2-methylpropyl)[(1s,4s)-4-methoxycyclohexyl]ami-no]-3′-{[3-(trifluoromethyl)-1,2,4-thiadiazol-5-yl]amino}-[1,1′-biphenyl]-2-carboxylic acid]: the IC50 in series [1] is 3.98 nM; in series [3], greater than 10000 nM. The “PBMC TOX PXC50” value in series [2] is reported as less than 5. For the same compound, the HELA_IDO1_TOX_PXC50 in series [4] is on record as less than 5.
Take `COCc1ccc(Nc2cc([C@H](C)CC(=O)O)ccc2N(CC(C)C)C2CCOCC2)cn1` [Example 31, (R)-3-(4-(isobutyl(tetrahydro-2H-pyran-4-yl)amino)-3-((6-(methoxymethyl)pyridin-3-yl)amino)phenyl)butanoic Acid]: the IC50 was 20 nM in series [1] and 10 nM in series [3]. The “PBMC TOX PXC50” value in series [2] was less than 5. The compound further displayed an HELA_IDO1_TOX_PXC50 in series [4] of 5.
`CC(C)CN(c1ccc([C@H](C)Cc2nnn[nH]2)cc1Nc1nc(C(F)(F)F)ns1)C1CCCCC1` [Example 101, (R)-4-(1-(1H-tetrazol-5-yl)propan-2-yl)-N^1-cyclohexyl-N^1-isobutyl-N^2-(3-(trifluoromethyl)-1,2,4-thiadiazol-5-yl)benzene-1,2-diamine]: the IC50 in series [1] is 2.51 nM; in series [3], 1.58 nM. The “PBMC TOX PXC50” value in series [2] is less than 5. Moreover, the HELA_IDO1_TOX_PXC50 in series [4] is given as less than 5.
As for `CC(C)CN(c1ccc(C(C)CC(=O)O)cc1NC1CCC(C)CC1)C1CCCCC1` (stereo not shown) [example 158, 3-{4-[cyclohexyl(2-methylpropyl)amino]-3-[(4-methylcyclohexyl)ami-no]phenyl}butanoic acid], the IC50 in series [1] was 1000 nM; in series [3], 631 nM. In addition, the “PBMC TOX PXC50” value in series [2] is less than 5. For the same compound, in series [4], the HELA_IDO1_TOX_PXC50 is less than 5.
Take `CC(C)CN(c1ccc(-c2ccccc2C(=O)O)cc1Nc1nc(C(F)(F)F)cs1)C1CCCCC1` [example 299, 4′-[cyclohexyl(2-methylpropyl)amino]-3′-{[4-(trifluoromethyl)-1,3-thiazol-2-yl]amino}-[1,1′-biphenyl]-2-carboxylic acid]: the IC50 in series [1] was 15.8 nM; in series [3] it was 6.31 nM. In addition, in series [2], the “PBMC TOX PXC50” value is less than 5. The compound also came in with an HELA_IDO1_TOX_PXC50 in series [4] of less than 5.
Consider `CC(C)CN(c1ccc([C@H](C)CC(=O)O)cc1Nc1cnc(C#N)nc1)C1CCOCC1` [Example 17, (R)-3-(3-((2-cyanopyrimidin-5-yl)amino)-4-(isobutyl(tetrahydro-2H-pyran-4-yl)amino)phenyl)butanoic Acid], for which the values for the IC50 in series [1] and in series [3] were 6.31 nM and 2 nM, respectively. For the same compound, the “PBMC TOX PXC50” value in series [2] is reported as less than 5. This compound had an HELA_IDO1_TOX_PXC50 in series [4] of less than 5.
Consider `CC(C)CN(c1ccc(C(C)OCC(=O)O)cc1Nc1nc(Cl)ns1)C1CCCCC1` (stereo not shown) [example 171, 2-(1-{3-[(3-chloro-1,2,4-thiadiazol-5-yl)amino]-4-[cyclohexyl(2-methylpropyl)amino]phenyl}ethoxy)acetic acid], for which the IC50 in series [1] is 158 nM; in series [3], 25.1 nM. For the same compound, in series [2], the “PBMC TOX PXC50” value was less than 5. In series [4], the HELA_IDO1_TOX_PXC50 was less than 5.
Turning to `CC(C)CN(CC(C)C)c1ccc(C(C)CC(=O)O)cc1Nc1ncccn1` (stereo not shown) [example 156, 3-{4-[bis(2-methylpropyl)amino]-3-[(pyrimidin-2-yl)amino]phenyl}butanoic acid], the IC50 in series [1] was greater than 10000 nM; in series [3], 7940 nM. Further, the “PBMC TOX PXC50” value in series [2] is on record as less than 5. This compound also yielded an HELA_IDO1_TOX_PXC50 in series [4] of less than 5.
For `Cc1nnc(Nc2cc(-c3ccccc3C(=O)O)ccc2N(CC(C)C)CC(C)C)s1` [example 298, 4′-[bis(2-methylpropyl)amino]-3′-[(5-methyl-1,3,4-thiadiazol-2-yl)amino]-[1,1′-biphenyl]-2-carboxylic acid], the IC50 in series [1] was 251 nM; in series [3], 39.8 nM. The “PBMC TOX PXC50” value in series [2] is recorded as less than 5. The HELA_IDO1_TOX_PXC50 in series [4] is recorded as less than 5.
Regarding `CC(C)CN(c1ccc(-c2cccnc2C(=O)O)cc1Nc1nc(C(F)(F)F)ns1)C1CCCCC1` [Example 88, 3-(4-(cyclohexyl(isobutyl)amino)-3-((3-(trifluoromethyl)-1,2,4-thiadiazol-5-yl)amino)phenyl)picolinic Acid], the IC50 in series [1] was 5.01 nM; in series [3] it was 3.98 nM. Moreover, the “PBMC TOX PXC50” value in series [2] was less than 5. In addition, in series [4], the HELA_IDO1_TOX_PXC50 is less than 5.
Consider `CC(C)CN(c1ccc([C@H](C)CC(=O)O)cc1Nc1ccc(Cl)nn1)[C@H]1CC[C@H](O)CC1` [Example 57, (R)-3-(3-((6-chloropyridazin-3-yl)amino)-4-(((1r,4R)-4-hydroxycyclohexyl) (isobutyl)amino)phenyl)butanoic Acid], for which the IC50 is 7.94 nM in series [1] and 5.01 nM in series [3]. In addition, the “PBMC TOX PXC50” value in series [2] is listed as less than 5. In series [4], this compound registered an HELA_IDO1_TOX_PXC50 of less than 5.
For the compound `CC(C)CN(c1ccc(-c2ccccc2C(=O)O)cc1Nc1nc(C(N)=O)ns1)C1CCCCC1` [Example 91, 3′-((3-carbamoyl-1,2,4-thiadiazol-5-yl)amino)-4′-(cyclohexyl(isobutyl)amino)-[1,1′-biphenyl]-2-carboxylic acid], the IC50 is 20 nM in series [1] and 10 nM in series [3]. Also, the “PBMC TOX PXC50” value in series [2] is given as less than 5. The HELA_IDO1_TOX_PXC50 in series [4] is on record as less than 5.
Regarding `CC(C)CN(c1ccc(C(C)(C)CC(=O)O)cc1Nc1nc(Cl)ns1)C1CCCCC1` [Example 2, 3-(3-((3-chloro-1,2,4-thiadiazol-5-yl)amino)-4-(cyclohexyl(isobutyl)amino)phenyl)-3-methylbutanoic Acid], the values for the IC50 in series [1] and in series [3] were 7.94 nM and 1.58 nM, respectively. The “PBMC TOX PXC50” value in series [2] was less than 5. Moreover, the HELA_IDO1_TOX_PXC50 in series [4] is listed as less than 5.
In the case of `CC(C)CN(c1ccc(C(C)CC(=O)O)cc1Nc1nc(Cl)ns1)C1CCOCC1` (stereo not shown) [Example 21, 3-(3-((3-chloro-1,2,4-thiadiazol-5-yl)amino)-4-(isobutyl(tetrahydro-2H-pyran-4-yl)amino)phenyl)butanoic Acid], the figures for the IC50 in series [1] and in series [3] were 31.6 nM and 2.51 nM, respectively. In series [2], the “PBMC TOX PXC50” value came to 5.2. Moreover, in series [4], the HELA_IDO1_TOX_PXC50 is less than 5.
In the same order, the values of `COc1ccc2[nH]c(Nc3cc(-c4ccccc4C(=O)O)ccc3N(CC(C)C)C3CCCCC3)nc2c1` [example 287, 4′-[cyclohexyl(2-methylpropyl)amino]-3′-[(5-methoxy-1H-1,3-benzodiazol-2-yl)amino]-[1,1′-biphenyl]-2-carboxylic acid] are 7.94 nM, 7.94 nM, less than 5 and less than 5.
